Here are results for 1 substance from patent EP0159194B1, “Iron 3-hydroxypyrone or 3-hydroxypyridone complexes and pharmaceutical compositions containing them” (priority 1984, dated 1985).

The test addresses apotransferrin (Homo sapiens, UniProt P02787). Briefly: Donation of iron to apotransferrin (59Fe, Sephadex G10 separation). In kind it is biochemical. The settings on record: 5 x 10^-5M apotransferrin, 1 x 10^-4M iron, pH 7.4. The protocol: (Maltol)2 (ascorbic acid) iron(III) was prepared in situ by dissolving maltol and ascorbic acid in a 2:1 molar ratio in an aqueous medium containing morpholine propane sulphonate (MOPS, 25 mM) and sodium hydrogen carbonate (30 mM), the pH being adjusted to 7.4 with hydrochloric acid (50% v/v). To the medium was added a solution of ^59Fe enriched ferric chloride in 0.1 M aqueous hydrochloric acid containing a molar amount of iron equivalent to that of the ascorbic acid. Equal volumes of the solution of the iron complex and of apotransferrin in the same aqueous medium were mixed to provide concentrations in the mixture of 5 x 10-^5M of apotransferrin and 1 x 10-^4M of iron.
The mixture was incubated at room temperature in separate experiments for 10 and 60 minutes and an aliquot was then added to a Sephadex G10 column equilibrated with the same aqueous medium described above and the column eluted with that medium, fractions being collected and counted. The percentages of ^59Fe associated with apotransferrin and with ligands are calculated as cpm iron-apotransferrin/total cpm and cpm iron-(maltol)2 (ascorbic acid)/total cpm.

Setting [1] is: after 10 minutes at room temperature.
[2] abbreviates: after 60 minutes at room temperature.

apotransferrin, sequence (P02787 20-698): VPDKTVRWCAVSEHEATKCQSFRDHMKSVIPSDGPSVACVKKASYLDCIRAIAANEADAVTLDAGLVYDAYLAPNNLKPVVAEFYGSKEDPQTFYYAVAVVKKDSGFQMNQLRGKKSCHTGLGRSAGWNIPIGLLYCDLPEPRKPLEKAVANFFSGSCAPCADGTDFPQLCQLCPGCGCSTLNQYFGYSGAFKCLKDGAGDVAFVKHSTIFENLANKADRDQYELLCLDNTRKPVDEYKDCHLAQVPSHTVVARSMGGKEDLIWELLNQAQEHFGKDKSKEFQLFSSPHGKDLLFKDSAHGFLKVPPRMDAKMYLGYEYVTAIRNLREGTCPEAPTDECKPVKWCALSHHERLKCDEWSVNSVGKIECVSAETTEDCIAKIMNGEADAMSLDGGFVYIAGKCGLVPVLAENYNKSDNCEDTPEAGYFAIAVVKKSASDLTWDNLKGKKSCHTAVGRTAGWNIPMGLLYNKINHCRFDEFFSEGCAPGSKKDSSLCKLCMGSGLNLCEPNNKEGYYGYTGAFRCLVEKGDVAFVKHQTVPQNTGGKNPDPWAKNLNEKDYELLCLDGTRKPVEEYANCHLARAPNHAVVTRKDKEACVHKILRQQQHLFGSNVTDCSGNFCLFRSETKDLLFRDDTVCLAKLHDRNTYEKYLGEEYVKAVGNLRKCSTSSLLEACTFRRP

In the case of “(maltol)2 (ascorbic acid) iron(III) complex”, under setting [1], the “59Fe associated with apotransferrin” value is recorded as 43% and the “59Fe associated with the ligands” value worked out at 57%. Further, under setting [2], the “59Fe donated to the apotransferrin” value is listed as 75% and the “59Fe remaining associated with the ligands” value was determined as 25%.
